Assay results reported in PubChem BioAssay AID1745844 (Carcinogenic Potency Database (CPDB), 2022).

Tested on: rodent lifetime carcinogenesis bioassay, tumor incidence TD50
Experiment: chronic cancer bioassays in animals – CPDB, compiled studies (AID 1745844)
Details: by gavage

Structure (SMILES): CC(C)=CCl
- TD50 (mouse, strain B6C3F1, females, site: Harderian gland, lesion: papillary adenoma, dosed 102 weeks, study length 103 weeks): 146 mg/kg/day
- TD50 (mouse, strain B6C3F1, females, site: any site (literature study), lesion: several types, types named in the paper, dosed 102 weeks, study length 103 weeks): 14.6 mg/kg/day
- TD50 (mouse, strain B6C3F1, females, site: forestomach, lesion: adenosquamous carcinoma + carcinoma, NOS + squamous-cell carcinoma + squamous-cell papilloma, dosed 102 weeks, study length 103 weeks): 14.3 mg/kg/day
- TD50 (mouse, strain B6C3F1, females, site: forestomach, lesion: adenosquamous carcinoma + carcinoma, NOS + squamous-cell carcinoma, dosed 102 weeks, study length 103 weeks): 14.3 mg/kg/day
- TD50 (mouse, strain B6C3F1, females, site: forestomach, lesion: squamous-cell carcinoma + squamous-cell papilloma, dosed 102 weeks, study length 103 weeks): 14.4 mg/kg/day
- TD50 (mouse, strain B6C3F1, females, site: forestomach, lesion: squamous-cell carcinoma, dosed 102 weeks, study length 103 weeks): 14.4 mg/kg/day
- TD50 (mouse, strain B6C3F1, females, site: forestomach, lesion: squamous-cell papilloma, dosed 102 weeks, study length 103 weeks): 373 mg/kg/day
- TD50 (mouse, strain B6C3F1, females, site: jejunum + liver + multiple organs + spleen, lesion: malignant lymphoma, lymphocytic type + malignant lymphoma, mixed type + malignant lymphoma, histiocytic type, dosed 102 weeks, study length 103 weeks): 124 mg/kg/day
- TD50 (mouse, strain B6C3F1, females, site: liver + multiple organs + spleen, lesion: malignant lymphoma, mixed type, dosed 102 weeks, study length 103 weeks): 229 mg/kg/day
- TD50 (mouse, strain B6C3F1, females, site: liver, lesion: hepatocellular adenoma + hepatocellular carcinoma + neoplastic nodule, dosed 102 weeks, study length 103 weeks): 150 mg/kg/day
- TD50 (mouse, strain B6C3F1, females, site: liver, lesion: hepatocellular adenoma, dosed 102 weeks, study length 103 weeks): 150 mg/kg/day
- TD50 (mouse, strain B6C3F1, females, site: lung, lesion: alveolar/bronchiolar adenoma + alveolar/bronchiolar carcinoma, dosed 102 weeks, study length 103 weeks): 186 mg/kg/day
- TD50 (mouse, strain B6C3F1, females, site: lung, lesion: alveolar/bronchiolar adenoma, dosed 102 weeks, study length 103 weeks): 235 mg/kg/day
- TD50 (mouse, strain B6C3F1, males, site: Harderian gland, lesion: papillary adenoma, dosed 102 weeks, study length 103 weeks): 149 mg/kg/day
- TD50 (mouse, strain B6C3F1, males, site: any site (literature study), lesion: several types, types named in the paper, dosed 102 weeks, study length 103 weeks): 13.9 mg/kg/day
- TD50 (mouse, strain B6C3F1, males, site: duodenum + lymph node + multiple organs + spleen, lesion: malignant lymphoma, mixed type + malignant lymphoma, NOS + granulocytic leukemia + malignant lymphoma, histiocytic type + malign, dosed 102 weeks, study length 103 weeks): 148 mg/kg/day
- TD50 (mouse, strain B6C3F1, males, site: duodenum + lymph node + multiple organs + spleen, lesion: malignant lymphoma, mixed type + malignant lymphoma, NOS + malignant lymphoma, histiocytic type + malignant lymphoma, lymphocy, dosed 102 weeks, study length 103 weeks): 154 mg/kg/day
- TD50 (mouse, strain B6C3F1, males, site: forestomach + preputial gland, lesion: squamous-cell carcinoma + squamous-cell papilloma, dosed 102 weeks, study length 103 weeks): 15.2 mg/kg/day
- TD50 (mouse, strain B6C3F1, males, site: forestomach, lesion: squamous-cell carcinoma + squamous-cell papilloma, dosed 102 weeks, study length 103 weeks): 15.5 mg/kg/day
- TD50 (mouse, strain B6C3F1, males, site: forestomach, lesion: squamous-cell carcinoma, dosed 102 weeks, study length 103 weeks): 17.2 mg/kg/day
- TD50 (mouse, strain B6C3F1, males, site: forestomach, lesion: squamous-cell papilloma, dosed 102 weeks, study length 103 weeks): 195 mg/kg/day
- TD50 (mouse, strain B6C3F1, males, site: liver + mesenteric lymph node + preputial gland + spleen, lesion: hemangioma + hemangiosarcoma, dosed 102 weeks, study length 103 weeks): 221 mg/kg/day
- TD50 (mouse, strain B6C3F1, males, site: liver + spleen, lesion: hemangiosarcoma, dosed 102 weeks, study length 103 weeks): 375 mg/kg/day
- TD50 (mouse, strain B6C3F1, males, site: liver, lesion: hepatocellular adenoma + hepatocellular carcinoma + neoplastic nodule, dosed 102 weeks, study length 103 weeks): 48.8 mg/kg/day
- TD50 (mouse, strain B6C3F1, males, site: liver, lesion: hepatocellular adenoma + hepatocellular carcinoma, dosed 102 weeks, study length 103 weeks): 48.8 mg/kg/day
- TD50 (mouse, strain B6C3F1, males, site: liver, lesion: hepatocellular adenoma, dosed 102 weeks, study length 103 weeks): 87.1 mg/kg/day
- TD50 (mouse, strain B6C3F1, males, site: liver, lesion: hepatocellular carcinoma, dosed 102 weeks, study length 103 weeks): 104 mg/kg/day
- TD50 (mouse, strain B6C3F1, males, site: lung, lesion: alveolar/bronchiolar adenoma + alveolar/bronchiolar carcinoma, dosed 102 weeks, study length 103 weeks): 87.7 mg/kg/day
- TD50 (mouse, strain B6C3F1, males, site: lung, lesion: alveolar/bronchiolar adenoma, dosed 102 weeks, study length 103 weeks): 117 mg/kg/day
- TD50 (mouse, strain B6C3F1, males, site: lung, lesion: alveolar/bronchiolar carcinoma, dosed 102 weeks, study length 103 weeks): 199 mg/kg/day
- TD50 (mouse, strain B6C3F1, males, site: preputial gland, lesion: squamous-cell carcinoma, dosed 102 weeks, study length 103 weeks): 90.7 mg/kg/day
- TD50 (rat, strain Fischer 344, females, site: any site (literature study), lesion: several types, types named in the paper, dosed 100 weeks, study length 104 weeks): 11.9 mg/kg/day
- TD50 (rat, strain Fischer 344, females, site: esophagus + forestomach + gingiva + nasal cavity + oral mucosa + palate + tongue, lesion: squamous-cell carcinoma + squamous-cell papilloma + adenocarcinoma + adenoma, NOS + carcinoma, NOS, dosed 100 weeks, study length 104 weeks): 25.3 mg/kg/day
- TD50 (rat, strain Fischer 344, females, site: esophagus, lesion: squamous-cell carcinoma, dosed 100 weeks, study length 104 weeks): 250 mg/kg/day
- TD50 (rat, strain Fischer 344, females, site: forestomach, lesion: squamous-cell carcinoma + squamous-cell papilloma, dosed 100 weeks, study length 104 weeks): 95.2 mg/kg/day
- TD50 (rat, strain Fischer 344, females, site: forestomach, lesion: squamous-cell carcinoma, dosed 100 weeks, study length 104 weeks): 191 mg/kg/day
- TD50 (rat, strain Fischer 344, females, site: forestomach, lesion: squamous-cell papilloma, dosed 100 weeks, study length 104 weeks): 209 mg/kg/day
- TD50 (rat, strain Fischer 344, females, site: gingiva + oral mucosa + palate + tongue, lesion: squamous-cell carcinoma + squamous-cell papilloma, dosed 100 weeks, study length 104 weeks): 318 mg/kg/day
- TD50 (rat, strain Fischer 344, females, site: lung, lesion: alveolar/bronchiolar adenoma + alveolar/bronchiolar carcinoma, dosed 100 weeks, study length 104 weeks): 218 mg/kg/day
- TD50 (rat, strain Fischer 344, females, site: mammary gland, lesion: adenocarcinoma + fibroadenoma, dosed 100 weeks, study length 104 weeks): 36.7 mg/kg/day
- TD50 (rat, strain Fischer 344, females, site: mammary gland, lesion: fibroadenoma, dosed 100 weeks, study length 104 weeks): 38.3 mg/kg/day
- TD50 (rat, strain Fischer 344, females, site: multiple organs, lesion: lymphocytic leukemia + mononuclear-cell leukemia, dosed 100 weeks, study length 104 weeks): 170 mg/kg/day
- TD50 (rat, strain Fischer 344, females, site: multiple organs, lesion: mononuclear-cell leukemia, dosed 100 weeks, study length 104 weeks): 202 mg/kg/day
- TD50 (rat, strain Fischer 344, females, site: nasal cavity, lesion: adenocarcinoma + adenoma, NOS + carcinoma, NOS + squamous-cell carcinoma, dosed 100 weeks, study length 104 weeks): 34.3 mg/kg/day
- TD50 (rat, strain Fischer 344, females, site: nasal cavity, lesion: adenocarcinoma + adenoma, NOS, dosed 100 weeks, study length 104 weeks): 143 mg/kg/day
- TD50 (rat, strain Fischer 344, females, site: nasal cavity, lesion: adenocarcinoma + carcinoma, NOS + squamous-cell carcinoma, dosed 100 weeks, study length 104 weeks): 35.2 mg/kg/day
- TD50 (rat, strain Fischer 344, females, site: nasal cavity, lesion: adenocarcinoma, dosed 100 weeks, study length 104 weeks): 159 mg/kg/day
- TD50 (rat, strain Fischer 344, females, site: nasal cavity, lesion: carcinoma, NOS + squamous-cell carcinoma, dosed 100 weeks, study length 104 weeks): 46.8 mg/kg/day
- TD50 (rat, strain Fischer 344, females, site: nasal cavity, lesion: carcinoma, NOS, dosed 100 weeks, study length 104 weeks): 52.7 mg/kg/day
- TD50 (rat, strain Fischer 344, females, site: oral mucosa + palate, lesion: squamous-cell papilloma, dosed 100 weeks, study length 104 weeks): 1010 mg/kg/day
- TD50 (rat, strain Fischer 344, females, site: oral mucosa, lesion: squamous-cell papilloma, dosed 100 weeks, study length 104 weeks): 1220 mg/kg/day
- TD50 (rat, strain Fischer 344, females, site: pituitary gland, anterior, lesion: adenoma, NOS + chromophobe adenoma + chromophobe carcinoma, dosed 100 weeks, study length 104 weeks): 68 mg/kg/day
- TD50 (rat, strain Fischer 344, females, site: pituitary gland, anterior, lesion: adenoma, NOS + chromophobe adenoma, dosed 100 weeks, study length 104 weeks): 101 mg/kg/day
- TD50 (rat, strain Fischer 344, females, site: pituitary gland, anterior, lesion: chromophobe adenoma + chromophobe carcinoma, dosed 100 weeks, study length 104 weeks): 71.7 mg/kg/day
- TD50 (rat, strain Fischer 344, females, site: pituitary gland, anterior, lesion: chromophobe adenoma, dosed 100 weeks, study length 104 weeks): 109 mg/kg/day
- TD50 (rat, strain Fischer 344, females, site: pituitary gland, anterior, lesion: chromophobe carcinoma, dosed 100 weeks, study length 104 weeks): 222 mg/kg/day
- TD50 (rat, strain Fischer 344, females, site: thyroid gland, lesion: c-cell adenoma, dosed 100 weeks, study length 104 weeks): 225 mg/kg/day
- TD50 (rat, strain Fischer 344, females, site: thyroid gland, lesion: follicular-cell adenoma + follicular-cell carcinoma, dosed 100 weeks, study length 104 weeks): 131 mg/kg/day
- TD50 (rat, strain Fischer 344, females, site: thyroid gland, lesion: follicular-cell carcinoma, dosed 100 weeks, study length 104 weeks): 136 mg/kg/day
- TD50 (rat, strain Fischer 344, females, site: uterus, lesion: endometrial stromal polyp + endometrial stromal sarcoma, dosed 100 weeks, study length 104 weeks): 84.9 mg/kg/day
- TD50 (rat, strain Fischer 344, females, site: uterus, lesion: endometrial stromal polyp, dosed 100 weeks, study length 104 weeks): 91.9 mg/kg/day
- TD50 (rat, strain Fischer 344, males, site: adrenal gland + adrenal medulla, lesion: pheochromocytoma, malignant + pheochromocytoma, dosed 94 weeks, study length 104 weeks): 86.7 mg/kg/day
- TD50 (rat, strain Fischer 344, males, site: any site (literature study), lesion: several types, types named in the paper, dosed 94 weeks, study length 104 weeks): 10.2 mg/kg/day
- TD50 (rat, strain Fischer 344, males, site: esophagus + forestomach + lip + nasal cavity + palate + tongue, lesion: squamous-cell carcinoma + squamous-cell papilloma + adenocarcinoma + carcinoma, NOS, dosed 94 weeks, study length 104 weeks): 17.5 mg/kg/day
- TD50 (rat, strain Fischer 344, males, site: esophagus, lesion: squamous-cell carcinoma + squamous-cell papilloma, dosed 94 weeks, study length 104 weeks): 81.6 mg/kg/day
- TD50 (rat, strain Fischer 344, males, site: esophagus, lesion: squamous-cell carcinoma, dosed 94 weeks, study length 104 weeks): 143 mg/kg/day
- TD50 (rat, strain Fischer 344, males, site: esophagus, lesion: squamous-cell papilloma, dosed 94 weeks, study length 104 weeks): 218 mg/kg/day
- TD50 (rat, strain Fischer 344, males, site: forestomach, lesion: squamous-cell carcinoma + squamous-cell papilloma, dosed 94 weeks, study length 104 weeks): 41.6 mg/kg/day
- TD50 (rat, strain Fischer 344, males, site: forestomach, lesion: squamous-cell carcinoma, dosed 94 weeks, study length 104 weeks): 135 mg/kg/day
- TD50 (rat, strain Fischer 344, males, site: forestomach, lesion: squamous-cell papilloma, dosed 94 weeks, study length 104 weeks): 67.1 mg/kg/day
- TD50 (rat, strain Fischer 344, males, site: lip + palate + tongue, lesion: squamous-cell carcinoma + squamous-cell papilloma, dosed 94 weeks, study length 104 weeks): 163 mg/kg/day
- TD50 (rat, strain Fischer 344, males, site: lip + palate + tongue, lesion: squamous-cell carcinoma, dosed 94 weeks, study length 104 weeks): 178 mg/kg/day
- TD50 (rat, strain Fischer 344, males, site: liver, lesion: hepatocellular adenoma + hepatocellular carcinoma + neoplastic nodule, dosed 94 weeks, study length 104 weeks): 1030 mg/kg/day
- TD50 (rat, strain Fischer 344, males, site: multiple organs, lesion: mononuclear-cell leukemia, dosed 94 weeks, study length 104 weeks): 128 mg/kg/day
- TD50 (rat, strain Fischer 344, males, site: nasal cavity, lesion: adenocarcinoma + carcinoma, NOS + squamous-cell carcinoma, dosed 94 weeks, study length 104 weeks): 29.7 mg/kg/day
- TD50 (rat, strain Fischer 344, males, site: nasal cavity, lesion: adenocarcinoma, NOS, dosed 94 weeks, study length 104 weeks): 70.1 mg/kg/day
- TD50 (rat, strain Fischer 344, males, site: nasal cavity, lesion: carcinoma, NOS + squamous-cell carcinoma, dosed 94 weeks, study length 104 weeks): 52.1 mg/kg/day
- TD50 (rat, strain Fischer 344, males, site: nasal cavity, lesion: carcinoma, NOS, dosed 94 weeks, study length 104 weeks): 63.4 mg/kg/day
- TD50 (rat, strain Fischer 344, males, site: nasal cavity, lesion: squamous-cell carcinoma, dosed 94 weeks, study length 104 weeks): 297 mg/kg/day
- TD50 (rat, strain Fischer 344, males, site: testis, lesion: interstitial-cell tumor, dosed 94 weeks, study length 104 weeks): 13.9 mg/kg/day
- TD50 (rat, strain Fischer 344, males, site: tongue, lesion: squamous-cell carcinoma + squamous-cell papilloma, dosed 94 weeks, study length 104 weeks): 415 mg/kg/day
- TD50 (rat, strain Fischer 344, males, site: tongue, lesion: squamous-cell carcinoma, dosed 94 weeks, study length 104 weeks): 469 mg/kg/day
